Here are results for 37 cell lines from the supplement of paper PMC10307832.

Compound in the test: O=C(NCCCNc1nc(Nc2cccc(NC(=O)N3CCCC3)c2)ncc1I)c1cccs1 [BX 795]
The test can be described thus: relative viability (nuclei count vs DMSO), 5 days (fraction); higher = more cells survive. In outline: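 Lung cancer cell lines in 1536-well plates were exposed by pinning to five library-drug doses (not always all listed) √10 apart, following an overnight hold at 37 °C. MetaXpress counted Hoechst-stained nuclei from 4× images taken after 5 days without medium change. Viability is the median ratio of treated-well to vehicle-well nuclei across plates. Plates required control CV below 25% and at least one doubling.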

Turning to NCI-H1755, the relative viability runs as follows: (0.04 µM) 1.05; (0.1265 µM) 1.03; (0.4 µM) 0.972; (1.265 µM) 0.881.

With LK-2, the relative viability (0.04 µM) amounted to 0.998, the relative viability (0.1265 µM) came out at 1.02, the relative viability (0.4 µM) is 0.863 and the relative viability (1.265 µM) amounted to 0.929.

As to NCI-H2085, the relative viability by setting is: (0.04 µM) 1.01; (0.1265 µM) 1.03; (0.4 µM) 0.981; (1.265 µM) 0.97.

On to NCI-H838, for which the relative viability was 0.892 (0.04 µM), 0.993 (0.1265 µM), 0.79 (0.4 µM) and 0.614 (1.265 µM).

As for LU99A, the relative viability is 0.946 (0.04 µM), 0.894 (0.1265 µM), 0.84 (0.4 µM) and 0.778 (1.265 µM).

Take NCI-H2228: the relative viability reads like this: (0.04 µM) 1.07; (0.1265 µM) 1.21; (0.4 µM) 1.04; (1.265 µM) 0.871.

On to NCI-H3122, for which the relative viability by setting is: (0.04 µM) 0.981; (0.1265 µM) 1.01; (0.4 µM) 1.04; (1.265 µM) 1.06.

As to NCI-H1650, the relative viability worked out at 0.915 (0.04 µM), 1.05 (0.1265 µM), 0.8 (0.4 µM) and 0.778 (1.265 µM).

Consider NCI-H1734, for which the relative viability (0.04 µM) was determined as 1.06, the relative viability (0.1265 µM) was 1.02, the relative viability (0.4 µM) was found to be 0.908 and the relative viability (1.265 µM) was 0.668.

With LC-2-ad, the relative viability amounted to 1.04 (0.04 µM), 0.924 (0.1265 µM), 0.912 (0.4 µM) and 0.661 (1.265 µM).

Consider UMC-11, for which the relative viability is, setting by setting: (0.04 µM) 0.896; (0.1265 µM) 0.995; (0.4 µM) 0.802; (1.265 µM) 0.675.

With LOU-NH91, the relative viability by setting is: (0.04 µM) 1.01; (0.1265 µM) 0.967; (0.4 µM) 0.982; (1.265 µM) 0.961.

For the cell line NCI-H1915, the relative viability is, setting by setting: (0.04 µM) 1.03; (0.1265 µM) 0.974; (0.4 µM) 0.955; (1.265 µM) 0.903.

Consider NCI-H1666, for which the relative viability by setting is: (0.04 µM) 1.06; (0.1265 µM) 1.03; (0.4 µM) 1.01; (1.265 µM) 0.925.

For the cell line LCLC-97TM1, the relative viability was found to be 1.11 (0.04 µM), 1.02 (0.1265 µM), 1.1 (0.4 µM) and 0.716 (1.265 µM).

As for HCC-827, the relative viability was 1 (0.04 µM), 1.02 (0.1265 µM), 1.04 (0.4 µM) and 1.01 (1.265 µM).

IA-LM: the relative viability is, setting by setting: (0.04 µM) 1.02; (0.1265 µM) 1.03; (0.4 µM) 1.12; (1.265 µM) 0.86.

For NCI-H647, the relative viability worked out at 0.81 (0.04 µM), 1.02 (0.1265 µM), 0.891 (0.4 µM) and 0.82 (1.265 µM).

NCI-H460: the relative viability worked out at 0.995 (0.04 µM), 1.08 (0.1265 µM), 0.991 (0.4 µM) and 0.954 (1.265 µM).

Turning to NCI-H2087, the relative viability is 1.07 (0.04 µM), 1.14 (0.1265 µM), 1.15 (0.4 µM) and 0.941 (1.265 µM).

NCI-H1944: the relative viability reads like this: (0.04 µM) 1.06; (0.1265 µM) 0.996; (0.4 µM) 1.16; (1.265 µM) 0.958.

For COR-L23, the relative viability by setting is: (0.04 µM) 1.04; (0.1265 µM) 1.04; (0.4 µM) 1.05; (1.265 µM) 0.669.

Regarding NCI-H1355, the relative viability was 1.01 (0.04 µM), 1.01 (0.1265 µM), 1.02 (0.4 µM) and 0.873 (1.265 µM).

As to HOP-62, the relative viability by setting is: (0.04 µM) 0.963; (0.1265 µM) 1.06; (0.4 µM) 1.21; (1.265 µM) 1.

As for PC-14, the relative viability turned out to be 0.948 (0.04 µM), 0.997 (0.1265 µM), 0.944 (0.4 µM) and 0.719 (1.265 µM).

On to NCI-H1793, for which the relative viability stood at 1.09 (0.04 µM), 0.917 (0.1265 µM), 1.05 (0.4 µM) and 0.808 (1.265 µM).

For the cell line NCI-H1792, the relative viability runs as follows: (0.04 µM) 0.93; (0.1265 µM) 0.818; (0.4 µM) 1.12; (1.265 µM) 0.867.

ABC-1: the relative viability by setting is: (0.04 µM) 0.888; (0.1265 µM) 0.797; (0.4 µM) 0.917; (1.265 µM) 0.906.

Take NCI-H2023: the relative viability (0.04 µM) came out at 0.906, the relative viability (0.1265 µM) was found to be 0.904, the relative viability (0.4 µM) worked out at 0.571 and the relative viability (1.265 µM) was determined as 0.6.

Regarding BEN, the relative viability (0.04 µM) worked out at 0.907, the relative viability (0.1265 µM) was determined as 1.12, the relative viability (0.4 µM) came to 0.952 and the relative viability (1.265 µM) was 1.05.

As to NCI-H23, the relative viability was 1.07 (0.04 µM), 0.952 (0.1265 µM), 0.896 (0.4 µM) and 0.769 (1.265 µM).

For the cell line EKVX, the relative viability runs as follows: (0.04 µM) 0.934; (0.1265 µM) 0.975; (0.4 µM) 0.883; (1.265 µM) 0.93.

In the case of 201T, the relative viability came out at 0.983 (0.04 µM), 0.996 (0.1265 µM), 1.07 (0.4 µM) and 1.04 (1.265 µM).

As to NCI-H1993, the relative viability amounted to 1.05 (0.04 µM), 0.983 (0.1265 µM), 0.926 (0.4 µM) and 0.893 (1.265 µM).

With NCI-H596, the relative viability (0.04 µM) was 1.05, the relative viability (0.1265 µM) was 1.04, the relative viability (0.4 µM) came out at 1 and the relative viability (1.265 µM) was determined as 0.933.

As for LCLC-103H, the relative viability (0.04 µM) was 1.02, the relative viability (0.1265 µM) turned out to be 1.01, the relative viability (0.4 µM) is 0.937 and the relative viability (1.265 µM) turned out to be 0.985.

As for NCI-H2347, the relative viability is, setting by setting: (0.04 µM) 1.14; (0.1265 µM) 1.01; (0.4 µM) 1.28; (1.265 µM) 0.935.
